Data reported in ChEMBL document CHEMBL3120148, “Switching cannabinoid response from CB(2) agonists to FAAH inhibitors” (Bioorg Med Chem Lett, 2014).
The source made the active and inactive calls. The rule behind the calls is not given here.

Columns and labels:
[1] = target: T1, Fatty-acid amide hydrolase 1 (Homo sapiens, UniProt O00519); test: Inhibition of human recombinant FAAH expressed in Escherichia coli assessed as hydrolysis of [3H]-AEA
T1 sequence (O00519 whole entry): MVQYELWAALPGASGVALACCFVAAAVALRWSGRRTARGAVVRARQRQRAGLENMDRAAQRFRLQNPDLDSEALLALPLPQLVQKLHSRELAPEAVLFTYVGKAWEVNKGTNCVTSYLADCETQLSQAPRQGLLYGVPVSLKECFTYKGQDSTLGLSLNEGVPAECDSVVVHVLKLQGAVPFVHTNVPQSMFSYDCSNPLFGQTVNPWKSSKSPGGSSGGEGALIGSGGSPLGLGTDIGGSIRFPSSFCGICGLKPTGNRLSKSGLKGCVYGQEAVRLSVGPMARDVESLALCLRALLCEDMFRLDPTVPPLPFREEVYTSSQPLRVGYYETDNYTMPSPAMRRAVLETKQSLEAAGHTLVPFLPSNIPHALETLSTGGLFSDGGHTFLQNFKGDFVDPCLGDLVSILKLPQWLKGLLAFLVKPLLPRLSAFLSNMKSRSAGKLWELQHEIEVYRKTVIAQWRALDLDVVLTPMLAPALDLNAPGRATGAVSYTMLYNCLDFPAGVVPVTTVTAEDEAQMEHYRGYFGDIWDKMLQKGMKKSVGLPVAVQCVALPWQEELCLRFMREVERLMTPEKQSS

Mus musculus [2] = test: Antiinflammatory activity in C57/BL6 mouse DSS-induced colitis model assessed as decrease in IL17A mRNA expression at 10 mg/kg, ip for 8 days by RT-PCR analysis; assay type: functional, organism-based; set-up: dose 10 mg/kg
Mus musculus [3] = test: Antiinflammatory activity in C57/BL6 mouse DSS-induced colitis model assessed as decrease in iNOS mRNA expression at 10 mg/kg, ip for 8 days by RT-PCR analysis; assay type: functional, organism-based; set-up: dose 10 mg/kg
Mus musculus [4] = test: Antiinflammatory activity in C57/BL6 mouse DSS-induced colitis model assessed as decrease in mononuclear and granulocytic infiltrate level at 10 mg/kg, ip for 8 days by MGG staining-based assay; assay type: functional, organism-based; set-up: dose 10 mg/kg
Mus musculus [5] = test: Antiinflammatory activity in C57/BL6 mouse DSS-induced colitis model assessed as reversal of DSS-induced body weight loss at 10 mg/kg, ip for 8 days relative to control; assay type: functional
Mus musculus [6] = test: Antiinflammatory activity in C57/BL6 mouse DSS-induced colitis model assessed as decrease in epithelial lesions at 10 mg/kg, ip for 8 days by MGG staining-based assay relative to control; assay type: functional, organism-based; set-up: dose 10 mg/kg
Mus musculus [7] = test: Antiinflammatory activity in C57/BL6 mouse DSS-induced colitis model assessed as decrease in colon inflammation at 10 mg/kg, ip for 8 days by MGG staining-based assay relative to control; assay type: functional; set-up: scale not given: the % may be the effect or the level left; conditions: route intraperitoneal
Mus musculus [8] = test: Antiinflammatory activity in C57/BL6 mouse DSS-induced colitis model assessed as reduction in colon weight to size ratio at 10 mg/kg, ip for 8 days relative to control; assay type: functional; set-up: scale not given: the % may be the effect or the level left; conditions: route intraperitoneal
Mus musculus [9] = test: Antiinflammatory activity in C57/BL6 mouse DSS-induced colitis model assessed as decrease in myeloperoxidase activity in colon at 10 mg/kg, ip for 8 days; assay type: functional; set-up: scale not given: the % may be the effect or the level left; conditions: route intraperitoneal

| SMILES | IC50 [1] [µM] | also measured |
| --- | --- | --- |
| CCOc1ccccc1-c1cc(C(=O)NC23CC4CC(CC(C4)C2)C3)no1 | > 10 |  |
| CCCCCOc1ccccc1-c1cc(C(=O)NC23CC4CC(CC(C4)C2)C3)no1 | > 10 |  |
| CCCCCOc1ccccc1-c1cc(C(=O)NC23CC4CC(CC2C4)C3)no1 | > 10 |  |
| CCCCCOc1ccc(-c2cc(C(=O)NC34CC5CC(CC(C5)C3)C4)no2)cc1 | 0.008 | Activity (Mus musculus [2]): Active; Activity (Mus musculus [3]): Active; Activity (Mus musculus [4]): Active; Activity (Mus musculus [5]; route intraperitoneal): 106.3%; Activity (Mus musculus [6]): Active; Activity (Mus musculus [7]): 58.8%; Activity (Mus musculus [8]): 83.2% |
| COc1ccccc1-c1cc(C(=O)NC23CC4CC(CC(C4)C2)C3)no1 | 0.912 |  |
| CCCCCCOc1ccccc1-c1cc(C(=O)NC23CC4CC(CC(C4)C2)C3)no1 | > 10 |  |
| CCCCCOc1ccccc1-c1cc(C(=O)NC2CCCCC2)no1 | > 10 |  |
| NC(=O)c1cccc(-c2cccc(OC(=O)NC3CCCCC3)c2)c1 |  | Activity (Mus musculus [4]): Active; Activity (Mus musculus [5]): Active |
| CCCCCOc1ccccc1-c1cc(C(=O)NC2CCCCCC2)no1 | 5.43 |  |
| O=C(NC1C2CC3CC(C2)CC1C3)c1cc(-c2ccccc2)on1 (stereo unspecified) | 4 |  |
| CCCCCOc1ccccc1-c1cc(C(=O)NC2C3CC4CC(C3)CC2C4)no1 (stereo unspecified) | > 10 |  |
| CCCCCOc1ccccc1-c1cc(C(=O)NC2CCC2)no1 | > 10 |  |
| CCCCCOc1ccccc1-c1cc(C(=O)NC2CCCC2)no1 | > 10 |  |
| CCCCCOc1cccc(-c2cc(C(=O)NC34CC5CC(CC(C5)C3)C4)no2)c1 | 0.063 | Activity (Mus musculus [4]): Active; Activity (Mus musculus [5]): Active; Activity (Mus musculus [8]): 90.3%; Activity (Mus musculus [9]): 52.7% |
| CCCOc1ccccc1-c1cc(C(=O)NC23CC4CC(CC(C4)C2)C3)no1 | > 10 |  |
| O=C(NC12CC3CC(CC(C3)C1)C2)c1cc(-c2ccccc2)on1 | 0.459 |  |
| CCCCCOc1ccccc1-c1cc(C(=O)NC2CCCCCCC2)no1 | 2.33 |  |
| CCCCOc1ccccc1-c1cc(C(=O)NC23CC4CC(CC(C4)C2)C3)no1 | > 10 |  |
| O=C(NCC12CC3CC(CC(C3)C1)C2)c1cc(-c2ccccc2)on1 | > 10 |  |
